Measured values: patent US20260258050A1, “IMMUNOMODULATOR” (HITGEN INC., priority 2023, published 2026)

Columns and labels:
Human IL-17A = target: T1, Human IL-17A (Homo sapiens, UniProt Q16552); assay: Inhibition of human IL-17A protein-induced GROα/CXCL1 production in HT-29 cells; assay type: cell-based; set-up: purchased R&D 317-ILB; host or cells: added exogenously to HT-29 cells; settings: 30 ng/mL human IL-17A protein, 48 h, GROα in supernatant by ELISA kit, read-out: Inhibitory IC50 of compounds on HT-29 cell GROα/CXCL1
T1 sequence (Q16552 20-155 limits assumed): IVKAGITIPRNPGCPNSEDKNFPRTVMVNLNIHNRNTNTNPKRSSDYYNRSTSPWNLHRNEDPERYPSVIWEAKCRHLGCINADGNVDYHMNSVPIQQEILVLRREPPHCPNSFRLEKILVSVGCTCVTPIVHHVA
How it was run: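 Compound dilutions were preincubated 1 h at 37 °C with 30 ng/mL human IL-17A, then added to HT-29 cells (5×10^4/well) for 48 h at 37 °C. GROα in supernatant quantified by ELISA; IC50 for inhibition of its production. Positive control: IL-17A antibody at […].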

Human IL-17AF = target: T2, Human IL-17AF (Homo sapiens, UniProt Q16552+Q96PD4); assay: IL-17AF ELISA (competitive ELISA, IL-17AF/IL-17Ra receptor-ligand binding); settings: human IL-17AF coated plate, human IL-17Ra, read-out: IC50, inhibitory activity of compounds on human IL-17AF
T2 construct: purchased Sino Biological Inc. CT047-H08H
T2 sequence (Q16552 24-155): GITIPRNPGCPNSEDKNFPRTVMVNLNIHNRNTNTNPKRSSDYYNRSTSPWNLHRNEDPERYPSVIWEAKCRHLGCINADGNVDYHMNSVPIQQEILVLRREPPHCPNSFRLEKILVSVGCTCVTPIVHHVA
T2 sequence (Q96PD4 31-163): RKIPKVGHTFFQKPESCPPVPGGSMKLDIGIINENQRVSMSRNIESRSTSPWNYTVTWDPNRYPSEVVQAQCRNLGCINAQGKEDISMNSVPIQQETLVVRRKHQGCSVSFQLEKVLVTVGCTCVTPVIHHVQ
Procedure: Experiment Example 2 IL-17AF ELISA
The inhibitory effects of human IL-17AF inhibitors on receptor-ligand binding were quantitatively determined by a competitive ELISA.
The ELISA was performed through the following steps.
Human IL-17AF (Sino Biological Inc., Cat #CT047-H08H) was diluted with coating buffer (50 mM PBS, pH 7.4) to reach a concentration of 0.625 μg/ml. 100 μL of the resulting solution was added to each well of a 96-well plate, and the plate was incubated at 37° C. for 30 min. In the blank group, 100 μL of coating buffer was added instead of the IL-17AF solution.
The plate was washed four times with 10 mM PBST (pH 7.4). 200 μL was used per well for each wash. After the final wash, the plate was tapped dry on absorbent paper.
Fresh 5% (w/v) skim milk solution was prepared before the experiment. For example, 5 grams of skim milk powder (Bio-Rad, Cat #170-6404) was completely dissolved in 100 mL of 10 mM PBST. 200 μL of the 5% (w/v) skim milk solution was added to each well, and the plate was incubated on a shaker at 25° C. for 30 min.
(S4) Preparation of 100× to-be-Tested Compound Solutions
During step (S3), the to-be-tested compound solutions were prepared. Each powdered compound was dissolved in dimethyl sulfoxide (DMSO) to reach a stock concentration of 10 mM. The to-be-tested compound solutions were then serially diluted four-fold with DMSO to obtain nine concentrations ranging from […].
(S6) Pre-Incubation of IL-17AF with to-be-Tested Compound Solutions
89 μL of PBST and 1 μL of each of the to-be-tested compound solutions were added to each well and mixed. The plate was pre-incubated at 25° C. for 10 min. In the blank group and the control group, 1 μL of DMSO was added instead of the to-be-tested compound solutions.
(S7) Incubation with Human IL-17Ra
10 μL of 100 nM IL-17Ra (Sino Biological Inc., Cat #10895-H03H) was added to each well, followed by incubation on a shaker at 25° C. for 30 min. The receptor solution was prepared in 10 mM PBST.
(S9) Incubation with Horseradish Peroxidase-Conjugated Antibody
100 μL of mouse anti-Fc tag HRP-conjugated antibody (Sino Biological Inc., Cat #10702-MM01T-H) was added to each well. The plate was incubated on a shaker at 25° C. for 30 min. The antibody was diluted with 5% (w/v) skim milk solution at 1:5,000 (v/v).
100 μL of TMB substrate solution (BD, Cat #555214) was added to each well. Substrate A and substrate B were freshly mixed at a volume ratio of 1:1 before use. The plate was incubated in the dark at 25° C. for 5-15 min.
(S12) Termination and Detection
The color reaction was terminated by addition of 2.5 M HCl. Absorbance was measured at 450 nm using a BMG PHERStar microplate reader.
(S13) Calculation of Half-Maximal Inhibitory Concentration (IC50)
The relative percent residual activity at each compound concentration was calculated according to Equation 1. The IC50 value of each test compound was then calculated in GraphPad 6 using the equation for log(inhibitor) versus normalized response with variable slope, as shown in Equation 2.
relative percent residual activity (%)=[(absorbance of sample−absorbance of blank group)/(absorbance of control group−absorbance of blank group)]%. Equation 1: […]
The compounds prepared in the Examples were tested for IL-17AF inhibitory activity according to the above method.

Row | SMILES | IC50 (Human IL-17A) [nM] | IC50 (Human IL-17AF) [nM]
1 | Cc1[nH]nc2c1-c1cc(F)c(NC(=O)[C@@H](NC(=O)c3ccnn3C(C)C)C(C3CC3)C3CC3)cc1CN(C(C)C(F)(F)F)C(=O)C2 (mixture of isomers) [compound 173] | ≤ 100 | 100 to 500
2 | Cc1[nH]nc2c1-c1ccc(NC(=O)[C@@H](NC(=O)c3ccnn3C)C(C3CC3)C3CC3)cc1COCC2 [compound 2] | 100 to 500 | ≤ 100
3 | Cc1[nH]nc2c1-c1cc(F)c(NC(=O)[C@@H](NC(=O)c3ccnn3C(C)C)C(C3CC3)C3CC3)cc1COCC2 [compound 15] | ≤ 100 | ≤ 100
4 | CCn1nccc1C(=O)N[C@H](C(=O)Nc1cc2c(cc1F)-c1c(n[nH]c1C)CCOC2)C(C1CC1)C1CC1 [compound 16] | 100 to 500 | 100 to 500
5 | Cc1[nH]nc2c1-c1cc(F)c(NC(=O)[C@@H](NC(=O)c3ccnn3C)C(C3CC3)C3CC3)cc1COCC2 [compound 17] | 100 to 500 | 100 to 500
6 | Cc1[nH]nc2c1-c1ccc(NC(=O)[C@@H](NC(=O)c3ccnn3C(C)C)C(C3CC3)C3CC3)cc1CN(C)C(=O)C2 [compound 22] | ≤ 100 | ≤ 100
7 | CCn1nccc1C(=O)N[C@H](C(=O)Nc1ccc2c(c1)CN(C)C(=O)Cc1n[nH]c(C)c1-2)C(C1CC1)C1CC1 [compound 23] | ≤ 100 | ≤ 100
8 | Cc1[nH]nc2c1-c1ccc(NC(=O)[C@@H](NC(=O)c3ccnn3C(C)C)C(C3CC3)C3CC3)cc1CNC(=O)C2 [compound 27] | 100 to 500 | 100 to 500
9 | CCn1nccc1C(=O)N[C@H](C(=O)Nc1ccc2c(c1)CNC(=O)Cc1n[nH]c(C)c1-2)C(C1CC1)C1CC1 [compound 28] | 100 to 500 | ≤ 100
10 | CCn1nccc1C(=O)N[C@H](C(=O)Nc1cc2c(cc1F)-c1c(n[nH]c1C)CCOC2)[C@H]1CC[C@H](C)CC1 [compound 46] | 100 to 500 | ≤ 100
11 | Cc1[nH]nc2c1-c1cc(F)c(NC(=O)[C@@H](NC(=O)c3ccnn3C(C)C)C3CCCCC3)cc1COCC2 [compound 48] | 100 to 500 | 100 to 500
12 | [2H]C([2H])([2H])C([2H])(n1nccc1C(=O)N[C@H](C(=O)Nc1ccc2c(c1)COCCc1n[nH]c(C)c1-2)C(C1CC1)C1CC1)C([2H])([2H])[2H] [compound 52] | ≤ 100 | 100 to 500
13 | [2H]C([2H])([2H])C([2H])(n1nccc1C(=O)N[C@H](C(=O)Nc1cc2c(cn1)-c1c(n[nH]c1C)CCOC2)C(C1CC1)C1CC1)C([2H])([2H])[2H] [compound 54] | ≤ 100 | ≤ 100
14 | COCCCn1nccc1C(=O)N[C@H](C(=O)Nc1cc2c(cc1F)-c1c(n[nH]c1C)CCOC2)C(C1CC1)C1CC1 [compound 58] | 100 to 500 | ≤ 100
15 | Cc1[nH]nc2c1-c1cc(F)c(NC(=O)[C@@H](NC(=O)c3ccnn3CC3CC3)C(C3CC3)C3CC3)cc1COCC2 [compound 59] | 100 to 500 | 100 to 500
16 | Cc1[nH]nc2c1-c1cc(F)c(NC(=O)[C@@H](NC(=O)c3ccnn3CC3CCC3)C(C3CC3)C3CC3)cc1COCC2 [compound 60] | 100 to 500 | ≤ 100
17 | CSCCn1nccc1C(=O)N[C@H](C(=O)Nc1cc2c(cc1F)-c1c(n[nH]c1C)CCOC2)C(C1CC1)C1CC1 [compound 61] | 100 to 500 | ≤ 100
18 | CCCn1nccc1C(=O)N[C@H](C(=O)Nc1cc2c(cc1F)-c1c(n[nH]c1C)CCOC2)C(C1CC1)C1CC1 [compound 62] | 100 to 500 | ≤ 100
19 | Cc1[nH]nc2c1-c1cc(F)c(NC(=O)[C@@H](NC(=O)c3ccnn3CCC(F)F)C(C3CC3)C3CC3)cc1COCC2 [compound 65] | 100 to 500 | ≤ 100
20 | [2H]C([2H])(C1CC1)n1nccc1C(=O)N[C@H](C(=O)Nc1cc2c(cc1F)-c1c(n[nH]c1C)CCOC2)C(C1CC1)C1CC1 [compound 76] | 100 to 500 | ≤ 100
21 | Cc1[nH]nc2c1-c1cc(F)c(NC(=O)[C@@H](NC(=O)c3ccnn3CCC(O)C(F)(F)F)C(C3CC3)C3CC3)cc1COCC2 (stereo partly shown) [compound 81] | 100 to 500 | ≤ 100
22 | Cc1[nH]nc2c1-c1cc(F)c(NC(=O)[C@@H](NC(=O)c3ccnn3CCCC(F)(F)F)C(C3CC3)C3CC3)cc1COCC2 [compound 84] | ≤ 100 | 100 to 500
23 | Cc1[nH]nc2c1-c1cc(F)c(NC(=O)[C@@H](NC(=O)c3ccnn3CCCF)C(C3CC3)C3CC3)cc1COCC2 [compound 86] | ≤ 100 | ≤ 100

Other lines, results leading:

Row | IC50 (Human IL-17A) [nM] | IC50 (Human IL-17AF) [nM] | SMILES
24 | ≤ 100 | 100 to 500 | Cc1[nH]nc2c1-c1cc(F)c(NC(=O)[C@@H](NC(=O)c3ccnn3C(C)C3CC3)C(C3CC3)C3CC3)cc1COCC2 (single isomer, unassigned) [compound 41a]
25 | ≤ 100 | ≤ 100 | Cc1[nH]nc2c1-c1cc(F)c(NC(=O)[C@@H](NC(=O)c3ccnn3C(C)C3CC3)C(C3CC3)C3CC3)cc1COCC2 (single isomer, unassigned) [compound 41b]
26 | ≤ 100 | ≤ 100 | Cc1[nH]nc2c1-c1cc(F)c(NC(=O)[C@@H](NC(=O)c3ccnn3C(C)CF)C(C3CC3)C3CC3)cc1COCC2 (single isomer, unassigned) [compound 42a]
27 | 100 to 500 | ≤ 100 | Cc1[nH]nc2c1-c1cc(F)c(NC(=O)[C@@H](NC(=O)c3ccnn3C(C)CF)C(C3CC3)C3CC3)cc1COCC2 (single isomer, unassigned) [compound 42b]
28 | ≤ 100 | 100 to 500 | Cc1[nH]nc2c1-c1cc(F)c(NC(=O)[C@@H](NC(=O)c3ccnn3C(C)C)C(C3CC3)C3CC3)cc1CN(C(C)C(F)(F)F)C(=O)C2 (single isomer, unassigned) [compound 186a]
29 | 100 to 500 | 100 to 500 | Cc1[nH]nc2c1-c1cnc(NC(=O)[C@@H](NC(=O)c3ccnn3C(C)C3CC3)C(C3CC3)C3CC3)cc1COCC2 (single isomer, unassigned) [compound 188a]
30 | ≤ 100 | 100 to 500 | Cc1[nH]nc2c1-c1cnc(NC(=O)[C@@H](NC(=O)c3ccnn3C(C)C3CC3)C(C3CC3)C3CC3)cc1COCC2 (single isomer, unassigned) [compound 188b]
31 | ≤ 100 | 100 to 500 | Cc1[nH]nc2c1-c1cnc(NC(=O)[C@@H](NC(=O)c3ccnn3C(C)CF)C(C3CC3)C3CC3)cc1COCC2 (single isomer, unassigned) [compound 189a]
32 | 100 to 500 | 100 to 500 | Cc1[nH]nc2c1-c1cnc(NC(=O)[C@@H](NC(=O)c3ccnn3C(C)CF)C(C3CC3)C3CC3)cc1COCC2 (single isomer, unassigned) [compound 189b]
